Calls of active or inactive are those of the source. The calls are words filed in the database; no cut-off is given here.
What was measured:
RAW264.7 [1] = assay: Antiinflammatory activity in LPS-induced mouse RAW264.7 cells assessed as inhibition of NO production at 20 uM pretreated for 1 hr followed by LPS stimulation and measured after 24 hrs by griess reagent based assay relative to control; format: functional; conditions: time 25 hrs
[2] = Cytotoxicity against mouse RAW264.7 cells incubated for 24 hrs by MTT assay; format: toxicity, cell-based
RAW264.7 [3] = assay: Antiinflammatory activity in LPS-induced mouse RAW264.7 cells assessed as inhibition of NO production pretreated for 1 hr followed by LPS stimulation and measured after 24 hrs by griess reagent based assay; format: functional, cell-based
[4] = Inhibition of TNF-alpha production in LPS-induced mouse RAW264.7 cells pretreated for 1 hr followed by LPS stimulation and measured after 24 hrs by ELISA; format: functional, cell-based
[5] = Inhibition of IL-6 production in LPS-induced mouse RAW264.7 cells pretreated for 1 hr followed by LPS stimulation and measured after 24 hrs by ELISA; format: functional, cell-based
[6] = Inhibition of IL-1beta production in LPS-induced mouse RAW264.7 cells pretreated for 1 hr followed by LPS stimulation and measured after 24 hrs by ELISA; format: functional, cell-based
Mus musculus [7] = assay: Antiinflammatory activity in ICR mouse model of xylene-induced auricle edema assessed as average weight of left ear at 20 mg/kg, IG pretreated for 1 hr followed by xylene addition and measured after 1 hr (reference value: 6.9 +/- 0.7 mg); format: functional; conditions: time 2 hrs
Mus musculus [8] = assay: Antiinflammatory activity in ICR mouse model of xylene-induced auricle edema assessed as average weight of right ear at 20 mg/kg, IG pretreated for 1 hr followed by xylene addition and measured after 1 hr (reference value: 11.5 +/- 2.1 mg); format: functional; conditions: time 2 hrs
Mus musculus [9] = assay: Antiinflammatory activity in ICR mouse model of xylene-induced auricle edema assessed as swelling degree at 20 mg/kg, IG pretreated for 1 hr followed by xylene addition and measured after 1 hr (reference value: 4.6 +/- 2 mg); format: functional; conditions: time 2 hrs
Mus musculus [10] = assay: Antiinflammatory activity in ICR mouse model of xylene-induced auricle edema assessed as inhibition rate of ear swelling at 20 mg/kg, IG pretreated for 1 hr followed by xylene addition and measured after 1 hr relative to control; format: functional; conditions: po, time 2 hrs
RAW264.7 [11] = assay: Antiinflammatory activity in LPS-induced mouse RAW264.7 cells assessed as inhibition of NO production incubated for 24 hrs in presence of LPS by griess reagent based assay; format: functional, cell-based; conditions: RAW264.7, 24 h
[12] = Inhibition of TNF-alpha production in LPS-induced mouse RAW264.7 cells incubated for 24 hrs in presence of LPS by ELISA; format: functional, cell-based; conditions: RAW264.7, 24 h
[13] = Inhibition of IL-6 production in LPS-induced mouse RAW264.7 cells incubated for 24 hrs in presence of LPS by ELISA; format: functional, cell-based; conditions: RAW264.7, 24 h
[14] = Inhibition of IL-1beta production in LPS-induced mouse RAW264.7 cells incubated for 24 hrs in presence of LPS by ELISA; format: functional, cell-based; conditions: RAW264.7, 24 h
Mus musculus [15] = assay: Antiinflammatory activity in ICR mouse model of xylene-induced ear edema assessed as edema inhibition rate at 25 mg/kg, po pretreated for 1 hr followed by xylene addition and measured after 0.5 hr relative to control; format: functional; conditions: time 1.5 hrs
HEK-293T = assay: Inhibition of NO production in HEK293T cells expressing iNOS assessed as effect on iNOS dimerization at 0.1 to 10 uM measured after 24 hrs by griess reagent based assay; format: functional, cell-based; conditions: Homo sapiens, dose 0.1-10 µM
RAW264.7 [16] = assay: Antiinflammatory activity in LPS-induced mouse RAW264.7 cells assessed as inhibition of NO production by measuring downregulation of iNOS protein expression at 0.5 to 10 uM pretreated for 2 hr followed by LPS stimulation and measured after 24 hrs by Western blot analysis; format: functional, cell-based; conditions: dose 0.5-10 µM, time 26.0 hrs
Mus musculus [17] = assay: Antiinflammatory activity in ICR mouse model of xylene-induced auricle edema assessed as average weight of left ear at 40 mg/kg, IG pretreated for 1 hr followed by xylene addition and measured after 1 hr (reference value: 6.9 +/- 0.7 mg); format: functional; conditions: time 2 hrs
Mus musculus [18] = assay: Antiinflammatory activity in ICR mouse model of xylene-induced auricle edema assessed as average weight of right ear at 40 mg/kg, IG pretreated for 1 hr followed by xylene addition and measured after 1 hr (reference value: 11.5 +/- 2.1 mg); format: functional; conditions: time 2 hrs
Mus musculus [19] = assay: Antiinflammatory activity in ICR mouse model of xylene-induced auricle edema assessed as swelling degree at 40 mg/kg, IG pretreated for 1 hr followed by xylene addition and measured after 1 hr (reference value: 4.6 +/- 2 mg); format: functional; conditions: time 2 hrs
Mus musculus [20] = assay: Antiinflammatory activity in ICR mouse model of xylene-induced auricle edema assessed as inhibition rate of ear swelling at 40 mg/kg, IG pretreated for 1 hr followed by xylene addition and measured after 1 hr relative to control; format: functional; conditions: po, time 2 hrs
RAW264.7 [21] = assay: Antiinflammatory activity in LPS-induced mouse RAW264.7 cells assessed as inhibition of NO production by measuring downregulation of iNOS protein expression at 2 to 8 uM pretreated for 2 hr followed by LPS stimulation and measured after 24 hrs by Western blot analysis; format: functional, cell-based; conditions: dose 2-8 µM, time 26.0 hrs
RAW264.7 [22] = assay: Inhibition of NFkappaB signaling pathway in LPS-induced mouse RAW264.7 cells assessed as reduction in IkappaBalpha phosphorylation pretreated for 2 hrs followed by LPS stimulation and measured after 10 mins by Western blot analysis; format: cell-based; conditions: dose 0.5-2 µM, time 130.0 min

Row | Structure (SMILES) | inhibition at 20 µM (RAW264.7 [1]) [%] | IC50 at 24 h [2] [µM] | further results
1 | COc1ccc2c(c1)oc(=O)n2CCNC(=O)/C=C/c1ccoc1 | 30.3 | > 100 | –
2 | Cc1ccc(-c2cc(C(F)(F)F)nn2-c2ccc(S(N)(=O)=O)cc2)cc1 [CELECOXIB] | 62.4 | – | IC50 (RAW264.7 [3]): 21.1 µM; IC50 [4]: 12.2 µM; IC50 [5]: 13.7 µM; IC50 [6]: 14.6 µM; Activity (Mus musculus [7]): 8.3 mg; Activity (Mus musculus [8]): 11.6 mg; Activity (Mus musculus [9]): 3.4 mg; inhibition in vivo at 20 mg/kg (Mus musculus [10]): 27.4%; IC50 (RAW264.7 [11]): 17.9 µM; IC50 [12]: 41.2 µM; IC50 [13]: 36 µM; IC50 [14]: 17.9 µM; inhibition in vivo at 25 mg/kg (Mus musculus [15]): 30.9%
3 | COc1ccc2c(c1)oc(=O)n2CCNC(=O)/C=C/c1ccco1 | 88.4 | > 100 | IC50 (RAW264.7 [3]): 2.4 µM; inhibition (HEK-293T): inactive; Activity (RAW264.7 [16]): Active; IC50 [4]: 7.5 µM; IC50 [5]: 8.8 µM; IC50 [6]: 11.6 µM; Activity (Mus musculus [7]): 9.5 mg; Activity (Mus musculus [17]): 8.1 mg; Activity (Mus musculus [8]): 12.7 mg; Activity (Mus musculus [18]): 11 mg; Activity (Mus musculus [9]): 3.2 mg; Activity (Mus musculus [19]): 3 mg; inhibition in vivo at 20 mg/kg (Mus musculus [10]): 30.9%; inhibition in vivo at 40 mg/kg (Mus musculus [20]): 35.3%
4 | COc1ccc2[nH]c(=O)oc2c1 [COIXOL] | 7.4 | > 100 | IC50 [4]: 31.2 µM; IC50 [5]: 48.9 µM; IC50 [6]: 66.4 µM
5 | COc1ccc2c(c1)oc(=O)n2CCNC(=O)/C=C/c1cc(OC)c(OC)c(OC)c1 | 51.1 | > 100 | IC50 (RAW264.7 [3]): 26 µM
6 | COc1ccc2c(c1)oc(=O)n2CCNC(=O)/C=C/c1ccccc1Cl | 10.7 | > 100 | –
7 | COc1ccc2c(c1)oc(=O)n2CCNC(=O)/C=C/c1ccccn1 | 42.8 | > 100 | –
8 | COc1ccc2c(c1)oc(=O)n2CCNC(=O)/C=C/c1ccc(C(F)(F)F)cc1 | 42 | 69.5 | –
9 | COc1ccc(/C=C/C(=O)NCCn2c(=O)oc3cc(OC)ccc32)cc1 | 45.9 | 68.8 | –
10 | COc1ccc2c(c1)oc(=O)n2CCNC(=O)/C=C/c1ccc([N+](=O)[O-])o1 | 105 | 38.8 | IC50 (RAW264.7 [3]): 0.8 µM; inhibition (HEK-293T): inactive; Activity (RAW264.7 [21]): Active; inhibition (RAW264.7 [22]): Dose-Dependent Effect; IC50 [4]: 10.9 µM; IC50 [5]: 10.3 µM; IC50 [6]: 11.8 µM; Activity (Mus musculus [7]): 7.2 mg; Activity (Mus musculus [17]): 8.5 mg; Activity (Mus musculus [8]): 9.7 mg; Activity (Mus musculus [18]): 10.5 mg; Activity (Mus musculus [9]): 2.4 mg; Activity (Mus musculus [19]): 2 mg; inhibition in vivo at 20 mg/kg (Mus musculus [10]): 47.1%; inhibition in vivo at 40 mg/kg (Mus musculus [20]): 56.6%
11 | COc1ccc2c(c1)oc(=O)n2CCNC(=O)/C=C/c1ccc(O)cc1 | 45.4 | 59 | –
12 | COc1ccc2c(c1)oc(=O)n2CCNC(=O)/C=C/c1cccs1 | 36.1 | > 100 | –
13 | O=C(/C=C/c1ccco1)NCCn1c(=O)oc2ccccc21 | 63.2 | > 100 | –
14 | COc1ccc2c(c1)oc(=O)n2CCNC(=O)/C=C/c1ccc(F)cc1 | 4.4 | > 100 | –
15 | COc1ccc2oc(=O)n(CCNC(=O)/C=C/c3ccco3)c2c1 | 56.2 | > 100 | –
16 | COc1ccc2c(c1)oc(=O)n2CCNC(=O)/C=C/c1ccc(C)cc1 | 30.2 | > 100 | –
17 | COc1ccc2c(c1)oc(=O)n2CCNC(=O)/C=C/c1ccc(C)o1 | 43.2 | > 100 | –
18 | COc1ccc2c(c1)oc(=O)n2CCNC(=O)/C=C/c1ccc(Cl)cc1 | 38.3 | > 100 | –
19 | O=C(/C=C/c1ccco1)NCCn1c(=O)oc2cc(Br)ccc21 | 75.3 | 68.9 | –
20 | COc1ccc2c(c1)oc(=O)n2CCNC(=O)/C=C/c1ccc(Br)o1 | 25.8 | > 100 | –
21 | COc1ccc2c(c1)oc(=O)n2CCNC(=O)c1ccco1 | 29.4 | > 100 | –
22 | COc1ccc2c(c1)oc(=O)n2CCNC(=O)/C=C/c1ccc(O)c(OC)c1 | 7.2 | > 100 | –
23 | COc1ccc2c(c1)oc(=O)n2CCNC(=O)/C=C/c1ccccc1 | 30.2 | > 100 | –
24 | COc1ccc2c(c1)oc(=O)n2CCNC(=O)/C=C/c1ccc(OC)c(OC)c1 | 8.9 | > 100 | –
25 | COc1ccc2c(c1)oc(=O)n2CCNC(=O)/C=C/c1cc2ccccc2o1 | 35.1 | > 100 | –
26 | COc1ccc2c(c1)oc(=O)n2CCNC(=O)/C=C/c1cccc(Cl)c1 | 5.2 | > 100 | –
27 | COc1ccc2c(c1)oc(=O)n2CCNC(=O)/C=C/c1ccccc1OC | 6.4 | 80.2 | –
28 | COc1cccc(/C=C/C(=O)NCCn2c(=O)oc3cc(OC)ccc32)c1 | 9.3 | > 100 | –
29 | COc1ccc(C(C)=O)c(OCCNC(=O)/C=C/c2cc(OC)c(OC)c(OC)c2)c1 | 88.8 | – | –
